# Columns and labels:
# Type in all cases: in vivo
# Apera spica-venti = experiment: Pre-emergence test, weed control; conditions: 3 weeks after treatment, rating 0-100 (100=death), Table 1
# In short: (§1)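 Herbicidal effect was scored visually on a 0–100 scale (100 = death, 0 = untreated-like) three weeks after treatment. Soil was horticultural loam sprayed just after sowing with aqueous-diluted acetone/0.4% TRITON X-155 formulations at 15–240 g a.i./ha (900 L/ha).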
# Galium aparine [1] = experiment: Pre-emergence test, weed control; conditions: 3 weeks after treatment, rating 0-100 (100=death), Table 1
# In short: as §1
# Lolium perenne = experiment: Pre-emergence test, weed control; conditions: 3 weeks after treatment, rating 0-100 (100=death), Table 1
# In short: as §1
# Matricaria inodora [2] = experiment: Pre-emergence test, weed control; conditions: 3 weeks after treatment, rating 0-100 (100=death), Table 1
# In short: as §1
# Setaria viridis [3] = experiment: Pre-emergence test, weed control; conditions: 3 weeks after treatment, rating 0-100 (100=death), Table 1
# In short: as §1
# Veronica persica = experiment: Pre-emergence test, weed control; conditions: 3 weeks after treatment, rating 0-100 (100=death), Table 1
# In short: as §1
# HORVW = experiment: Pre-emergence test, selectivity; conditions: 3 weeks after treatment, rating 0-100 (100=death), Table 2
# In short: as §1
# [4] = test system: Hordeum vulgare variety “Mammut”; experiment: Pre-emergence test, selectivity; conditions: 3 weeks after treatment, rating 0-100 (100=death), Table 2
# In short: as §1
# [5] = test system: Triticum aestivum variety “Kanzler”; experiment: Pre-emergence test, selectivity; conditions: 3 weeks after treatment, rating 0-100 (100=death), Table 2
# In short: as §1
# [6] = test system: Triticum aestivum variety “Monopol”; experiment: Pre-emergence test, selectivity; conditions: 3 weeks after treatment, rating 0-100 (100=death), Table 2
# In short: as §1
# Galium aparine [7] = experiment: Post-emergence test, weed control; conditions: 2–4 weeks after treatment, rating 0-100 (100=death), Table 5
# Procedure: (§2) These acetone solutions are diluted with water and the resulting formulations applied at dosage levels equivalent of about 0.030 to 0.240 kg per hectare of test compound per pot. After spraying the plants are placed an greenhouse benches and are cared for in the usual manner, commensurate with conventional greenhouse practices. From 2 to 4 weeks after treatment, the seedling plants are examined and rated according to the rating system provided above. A rating 0 indicates growth as untreated control, a rating 100 indicates death.
# Lamium purpureum = experiment: Post-emergence test, weed control; conditions: 2–4 weeks after treatment, rating 0-100 (100=death), Table 5
# Procedure: as §2
# Matricaria inodora [8] = experiment: Post-emergence test, weed control; conditions: 2–4 weeks after treatment, rating 0-100 (100=death), Table 5
# Procedure: as §2
# Polygonum convolvulus = experiment: Post-emergence test, weed control; conditions: 2–4 weeks after treatment, rating 0-100 (100=death), Table 5
# Procedure: as §2
# Setaria viridis [9] = experiment: Post-emergence test, weed control; conditions: 2–4 weeks after treatment, rating 0-100 (100=death), Table 5
# Procedure: as §2
# Stellaria media = experiment: Post-emergence test, weed control; conditions: 2–4 weeks after treatment, rating 0-100 (100=death), Table 5
# Procedure: as §2
# VIOAR = experiment: Post-emergence test, weed control; conditions: 2–4 weeks after treatment, rating 0-100 (100=death), Table 5
# Procedure: as §2
# [10] = test system: Triticum aestivum variety “Kanzler”; experiment: Post-emergence test, selectivity; conditions: 2–4 weeks after treatment, rating 0-100 (100=death), Table 6
# Procedure: as §2
# [11] = test system: Triticum aestivum variety “Monopol”; experiment: Post-emergence test, selectivity; conditions: 2–4 weeks after treatment, rating 0-100 (100=death), Table 6
# Procedure: as §2
# wheat = experiment: Post-emergence test, tolerance in wheat; conditions: in vivo
# Procedure: as §2
smiles,measurement,setting,value
CCc1cc(Oc2cccc(C(F)(F)F)c2)nc(-c2ccc(C(F)(F)F)cc2)n1 [REF-3],APESV weed control rating,Apera spica-venti; 0.015 kg/ha,100
same,APESV weed control rating,Apera spica-venti; 0.030 kg/ha,100
same,APESV weed control rating,Apera spica-venti; 0.060 kg/ha,100
same,APESV weed control rating,Apera spica-venti; 0.120 kg/ha,100
same,APESV weed control rating,Apera spica-venti; 0.240 kg/ha,100
same,GALAP weed control rating,Galium aparine [1]; 0.060 kg/ha,50
same,GALAP weed control rating,Galium aparine [1]; 0.120 kg/ha,85
same,GALAP weed control rating,Galium aparine [1]; 0.240 kg/ha,97
same,LOLPE weed control rating,Lolium perenne; 0.015 kg/ha,90
same,LOLPE weed control rating,Lolium perenne; 0.030 kg/ha,98
same,LOLPE weed control rating,Lolium perenne; 0.060 kg/ha,99
same,LOLPE weed control rating,Lolium perenne; 0.120 kg/ha,99
same,LOLPE weed control rating,Lolium perenne; 0.240 kg/ha,100
same,MATIN weed control rating,Matricaria inodora [2]; 0.015 kg/ha,99
same,MATIN weed control rating,Matricaria inodora [2]; 0.030 kg/ha,99
same,MATIN weed control rating,Matricaria inodora [2]; 0.060 kg/ha,99
same,MATIN weed control rating,Matricaria inodora [2]; 0.120 kg/ha,100
same,MATIN weed control rating,Matricaria inodora [2]; 0.240 kg/ha,100
same,SETVI weed control rating,Setaria viridis [3]; 0.015 kg/ha,100
same,SETVI weed control rating,Setaria viridis [3]; 0.030 kg/ha,100
same,SETVI weed control rating,Setaria viridis [3]; 0.060 kg/ha,100
same,SETVI weed control rating,Setaria viridis [3]; 0.120 kg/ha,100
same,SETVI weed control rating,Setaria viridis [3]; 0.240 kg/ha,100
same,VERPE weed control rating,Veronica persica; 0.015 kg/ha,100
same,VERPE weed control rating,Veronica persica; 0.030 kg/ha,100
same,VERPE weed control rating,Veronica persica; 0.060 kg/ha,100
same,VERPE weed control rating,Veronica persica; 0.120 kg/ha,100
same,VERPE weed control rating,Veronica persica; 0.240 kg/ha,100
same,HORVW rating (Selectivity),HORVW; 0.015 kg/ha,15
same,HORVW rating (Selectivity),HORVW; 0.030 kg/ha,45
same,HORVW rating (Selectivity),HORVW; 0.060 kg/ha,45
same,HORVW rating (Selectivity),HORVW; 0.120 kg/ha,60
same,HORVW rating (Selectivity),HORVW; 0.240 kg/ha,60
same,HORVWM rating (Selectivity),[4]; 0.015 kg/ha,20
same,HORVWM rating (Selectivity),[4]; 0.030 kg/ha,30
same,HORVWM rating (Selectivity),[4]; 0.060 kg/ha,40
same,HORVWM rating (Selectivity),[4]; 0.120 kg/ha,55
same,HORVWM rating (Selectivity),[4]; 0.240 kg/ha,55
same,TRZAWK rating (Selectivity),[5]; 0.015 kg/ha,5
same,TRZAWK rating (Selectivity),[5]; 0.030 kg/ha,8
same,TRZAWK rating (Selectivity),[5]; 0.060 kg/ha,8
same,TRZAWK rating (Selectivity),[5]; 0.120 kg/ha,25
same,TRZAWK rating (Selectivity),[5]; 0.240 kg/ha,40
same,TRZAWM rating (Selectivity),[6]; 0.015 kg/ha,3
same,TRZAWM rating (Selectivity),[6]; 0.030 kg/ha,8
same,TRZAWM rating (Selectivity),[6]; 0.060 kg/ha,10
same,TRZAWM rating (Selectivity),[6]; 0.120 kg/ha,35
same,TRZAWM rating (Selectivity),[6]; 0.240 kg/ha,45
same,GALAP weed control rating,Galium aparine [7]; 0.030 kg/ha,90
same,GALAP weed control rating,Galium aparine [7]; 0.060 kg/ha,90
same,GALAP weed control rating,Galium aparine [7]; 0.120 kg/ha,93
same,GALAP weed control rating,Galium aparine [7]; 0.240 kg/ha,93
same,LAMPU weed control rating,Lamium purpureum; 0.030 kg/ha,93
same,LAMPU weed control rating,Lamium purpureum; 0.060 kg/ha,93
same,LAMPU weed control rating,Lamium purpureum; 0.120 kg/ha,93
same,LAMPU weed control rating,Lamium purpureum; 0.240 kg/ha,93
same,MATIN weed control rating,Matricaria inodora [8]; 0.030 kg/ha,65
same,MATIN weed control rating,Matricaria inodora [8]; 0.060 kg/ha,80
same,MATIN weed control rating,Matricaria inodora [8]; 0.120 kg/ha,85
same,MATIN weed control rating,Matricaria inodora [8]; 0.240 kg/ha,85
same,POLCO weed control rating,Polygonum convolvulus; 0.060 kg/ha,35
same,POLCO weed control rating,Polygonum convolvulus; 0.120 kg/ha,55
same,POLCO weed control rating,Polygonum convolvulus; 0.240 kg/ha,80
same,SETVI weed control rating,Setaria viridis [9]; 0.030 kg/ha,95
same,SETVI weed control rating,Setaria viridis [9]; 0.060 kg/ha,98
same,SETVI weed control rating,Setaria viridis [9]; 0.120 kg/ha,99
same,SETVI weed control rating,Setaria viridis [9]; 0.240 kg/ha,100
same,STEME weed control rating,Stellaria media; 0.030 kg/ha,65
same,STEME weed control rating,Stellaria media; 0.060 kg/ha,85
same,STEME weed control rating,Stellaria media; 0.120 kg/ha,85
same,STEME weed control rating,Stellaria media; 0.240 kg/ha,92
same,VIOAR weed control rating,VIOAR; 0.030 kg/ha,90
same,VIOAR weed control rating,VIOAR; 0.060 kg/ha,90
same,VIOAR weed control rating,VIOAR; 0.120 kg/ha,90
same,VIOAR weed control rating,VIOAR; 0.240 kg/ha,93
same,TRZAWK rating (Selectivity),[10]; 0.03 kg/ha,12
same,TRZAWK rating (Selectivity),[10]; 0.06 kg/ha,15
same,TRZAWK rating (Selectivity),[10]; 0.12 kg/ha,25
same,TRZAWK rating (Selectivity),[10]; 0.24 kg/ha,35
same,TRZAWM rating (Selectivity),[11]; 0.03 kg/ha,10
same,TRZAWM rating (Selectivity),[11]; 0.06 kg/ha,15
same,TRZAWM rating (Selectivity),[11]; 0.12 kg/ha,22
same,TRZAWM rating (Selectivity),[11]; 0.24 kg/ha,30
same,maximum tolerated dose in wheat / dose at which sufficiently selective in wheat,wheat,clearly less selective in wheat than TTP

# From patent publication US7008905B2, “Method of combating undesired plant growth on cereals” (BASF Aktiengesellschaft, priority 2000, dated 2006)
